Laboratory results taken from patent US4966962A, “Reverse analogue of actinomycin D” (Trustees of Boston University, priority 1988, dated 1990).

Assays:
rat liver microsomes = assay: Stimulation of NADPH oxidation by rat hepatic microsomal incubations; format: biochemical; details: for percentage stimulation of NADPH oxidation: (drug-stimulated rate - basal rate)/basal rate × 100; for NADPH oxidation: measured at 340 nm, average ± standard error of triplicate
Description: It has been reported that the quinone imino chromophore of actinomycin can be subjected to enzyme-catalyzed single-electron reduction to give free-radical species that generate superoxides by reacting with molecular oxygen. The process needs a reductive cofactor NADPH, which is oxidized to NADP^+ during the process, giving a change in the absorbance at 340 nm that can be measured spectrophotometerically. Alternatively, the superoxides generated during the process may be allowed to react with epinephrine to produce adrenochrome, a chromophore with strong absorbance at 480 nm that can be measured spectrophotmetrically.
The superoxide formations were studied via NADPH oxidation catalyzed by AMD analogues in the presence of rat liver microsomes. […] The process of adrenochrome formation is inhibited by superoxide dismutase, confirming that superoxide is indeed generated in these systems.
^a The percentage stimulation = (drugstimulated rate basal rate)/basa
rate × 100 and is shown in parentheses. NADPH oxidation was measure
at 340 nm and adrenochrome formation was measured at 489 nm; the values
are average ± standard errors of triplicate analyses. ^b SOD,

[1] = system: human colon carcinoma HT-29 cell line; assay: Cell viability by soft agar cloning; format: cell-based; details: 2 h treatment at 37° C., from plot of concentration vs colony formation
Protocol: Furthermore, the activity of the analogues against a human colon carcinoma HT-29 cell line in culture was evaluated. After the cells were treated for 2 h with 0.01-10.0 uM of the drugs at 37° C., the cells were washed with ice-cold PBS (phosphate buffered saline), and the cell viability was assessed by soft agar cloning. Cells viability was expressed as the percentage of colonies from the drug-treated cells relative to control cells after correcting for the cloning efficiency, which ranged from 60% to 80%.

[2] = system: P388/S (adriamycin sensitive) leukemia; assay: Antitumor activity in vivo, P388/S leukemia; set-up: species or system mice; details: for tumor free survivors/total on day 60: P388/S, at optimal dose, ip days 1, 5, 9; for effectiveness relative to AMD with respect to %ILS and long-time survivors: P388 lymphocytic leukemia in mice
Protocol: The analogues were tested for their antitumor activities in P388 lymphocytic leukemia in male BDF1 mice.
^a Male CDF1 mic inoculated ip: 10^6 cells inoculum, day 0.
Drugs administered in 10% dimethyl sulfoxidesaline on days 1, 5, and 9. %
ILS = percent increase in life span. Fractions in parentheses = tumor fre
survivors/total on day 60^b. P388/S (adriamycin sensitive) and
P388/ADR (adriamycin resistant) tumors were evaluated in the same
experiment with agent listed.

[3] = system: P388/ADR (adriamycin resistant) leukemia; assay: Antitumor activity in vivo, P388/ADR leukemia; set-up: species or system mice; details: at optimal dose, ip days 1, 5, 9
Protocol: The analogues were also tested against P388/ADR murine leukemia following the standard protocol (Table VI).
ILS = percent increase in life span.

B16 melanoma = assay: In vivo antitumor activity against B16 melanoma; set-up: species or system BDF1 mice; details: for % ILS / survivors on day 65/total injected / MST (range), median survival time: at optimal dose, ip days 1, 5, 9; for MST (range), median survival time: range of days of death; for optimal dose: ip, days 1, 5, 9
Protocol: ^a 0.2 mL of 1:5 (weight/volume) brei of B16 melanoma implanted
ip on day 0 in groups of nine BDF1 mice. Drugs administered ip^b
MST (range), median survival time in days (range of days for death of
individual animal). ^c % ILS (surv), percent increase in life span
(survivors on day 65/total injected).

colon 38 adenocarcinoma = assay: Activity against advanced colon carcinoma C38 tumor; format: in vivo, CDF1 mice; details: for % inhibn of tumor: tumors measured day 21; for activity relative to AMD at equivalent doses: every 4 days, three times, from day 1 after implant
Protocol: In view of favorable activity agianst colon 26 carcinoma, further experiments using the active analogues were carried out on the advanced colon adenocarcinomas of mouse colon 38. […] The superiority of RAD III and SAD over AMD in inhibiting colon 38 carcinoma is evident from the data of both tumor weight inhibition and increases in survival time of the treated over nontreated mice and the larger number of long-term survivors produced by these analogues.
^a CDF1 mice were injected sc with colon 38 adenocarcinoma
fragments (70 mg) and treated with drugs with iv injections on day 1, 5,
and 9 following tumor imoplantation on day 0. ^b [100 (tumor weight o
treated mice/tumor weight of untreated mice)] × 100; data pooled
from two experiments, tumors measured on day 21 after implantation ^c
(Median survival time of treated mice/median survival of untreated mice)
× 100; in parenthesis, number of over 100 day survivors/number of […]

[4] = system: CX-1 human colon adenocarcinoma; assay: Chemotherapy of human colon CX-1 tumor heterotransplanted in nude mice; format: in vivo, human tumor in athymic mice; details: for % T/C, optimal: TST 15, observed day 22; for response of CX-1 tumor to treatment (in words): three iv treatments weekly from 15th day of transplant, at the doses tested
Protocol: Tables XI and XII show the effectiveness of SAD (2) and RAD (3b and 3c) against CX-1 human colon adenocarcinoma heterotransplanted into athymic mice, with three iv treatments with drugs on a weekly schedule starting on the 15th day of tumor transplant. AMD and the analogues were tested at doses of 45 and 60 ug/kg.
^a -, % T/C high than 50%; ±, % T/C close to 50%; +, % T/C from 50
to 35%; ++, % T/C from 35% to 20%; +++, % T/C lower than 20%; ++++,
regression of the tumor to a volume lower than 10% of the volume at the
start of treatment. ^b Statistically significant as evaluated by the
^a Intravenous treatment, once a week for three weeks; eight mice per
group. ^b TST; number of days between tumor transplant and starting o
treatment. ^c Numbers in parentheses; day of observation after the […]

[5] = Maximum tolerated dose (LD10) in tumor-free male mice; details: ip days 1, 5, 9; deaths observed during 21 days; from plot of log dose vs percent mortality
Protocol: The analogues were also tested in tumor-free male mice for their LD10 values (Table XIV). The animals were given a broad range of doses (ip) on days 1, 5, and 9. The maximum tolerated doses of AMD and the analogues that caused death in only 10% of the tested animals in 21 days (i.e., LD10) were recorded as MTD. […] On the basis of these values, the calculated therapeutic index values of SAD is 96, and those of RAD I, II, and III are 60, 67, and 70, respectively.
control in P388 tumor bearing mice. ^c MTD (maximum tolerated dose) i
the lethal dose (milligram/kilogram) for 10% normal BDF1 male mice
days). Values were calculated from a plot of log dose vs percent

[6] = dose 0.30 mg/kg iv days 1, 5, 9
[7] = dose 0.60 mg/kg iv days 1, 5, 9
[8] = dose 1.20 mg/kg iv days 1, 5, 9

Row | SMILES | percentage stimulation of NADPH oxidation (rat liver microsomes) [%] | NADPH oxidation (rat liver microsomes) | LD90, drug concentration producing 90% reduction in cell viability [1] [µM] | tumor free survivors/total on day 60 [2] | effectiveness relative to AMD with respect to %ILS and long-time survivors [2] | tumor free survivors/total on day 60 [3] | % ILS (B16 melanoma) [%] | survivors on day 65/total injected (B16 melanoma) | MST (range), median survival time (B16 melanoma) | optimal dose (B16 melanoma) [μg/kg per inj] | % T/C (median survival time) (colon 38 adenocarcinoma; [6]) [%] | over 100 day survivors/number of mice (colon 38 adenocarcinoma; [6]) | % inhibn of tumor (colon 38 adenocarcinoma; [6]) [%] | % T/C (median survival time) (colon 38 adenocarcinoma; [7]) [%] | over 100 day survivors/number of mice (colon 38 adenocarcinoma; [7]) | % inhibn of tumor (colon 38 adenocarcinoma; [7]) [%] | % T/C (median survival time) (colon 38 adenocarcinoma; [8]) [%] | over 100 day survivors/number of mice (colon 38 adenocarcinoma; [8]) | % inhibn of tumor (colon 38 adenocarcinoma; [8]) [%] | activity relative to AMD at equivalent doses (colon 38 adenocarcinoma) | other results
1 | Cc1c2oc3c(C)c4oc(CC(=O)NCCCCN)nc4c(C(=O)N[C@@H]4C(=O)N[C@H](C(C)C)C(=O)N5CCC[C@H]5C(=O)N(C)CC(=O)N(C)[C@@H](C(C)C)C(=O)O[C@@H]4C)c3nc-2c(C(=O)N[C@@H]2C(=O)N[C@H](C(C)C)C(=O)N3CCC[C@H]3C(=O)N(C)CC(=O)N(C)[C@@H](C(C)C)C(=O)O[C@@H]2C)c(N)c1=O [RAD III (3c)] | 812 | 87.1 ± 7.1 nmol/min per mg of protein | 5.0 | 6/8 | two-to threefold | 2/8 | 114 | 6/9 | 62(53-61) days | 300 | 170 | 1/9 | 80 | 250 | 6/9 | 93 | 231 | 3/9 | 94 | about 150% | P388/S optimal dose ([2]; ip on days 1, 5, and 9): 1.0 mg/kg; % T/C, optimal ([4]; dose 45 μg/kg iv once a week for three weeks): 5%; % T/C, optimal ([4]; dose 60 μg/kg iv once a week for three weeks): 3%; response of CX-1 tumor to treatment (in words) [4]: responded remarkably well to the treatment of RAD III at doses of 45 and 60 ug/kg; MTD (maximum tolerated dose), lethal dose for 10% of normal mice (LD10) [5]: 3.50 milligram/kilogram
2 | Cc1c2oc3c(C)c(O)c(N)c(C(=O)N[C@@H]4C(=O)N[C@H](C(C)C)C(=O)N5CCC[C@H]5C(=O)N(C)CC(=O)N(C)[C@@H](C(C)C)C(=O)O[C@@H]4C)c3nc-2c(C(=O)N[C@@H]2C(=O)N[C@H](C(C)C)C(=O)N3CCC[C@H]3C(=O)N(C)CC(=O)N(C)[C@@H](C(C)C)C(=O)O[C@@H]2C)c(N)c1=O [SAD (2)] | 606 | 64.3 ± 2.11 nmol/min per mg of protein | 0.1 | 4/8 | two-to threefold | 3/8 | 96 | 4/9 | 57(33-61) days | 300 | 278 | 5/9 | 95 | 278 | 6/9 | 97 | 211 | 2/9 | 99 | about 150% | response of CX-1 tumor to treatment (in words) [4]: responded fairly well to SAD treatment but at 60 ug/kg only; MTD (maximum tolerated dose), lethal dose for 10% of normal mice (LD10) [5]: 2.40 milligram/kilogram
